≈ marks a conversion by molar mass, not a printed value.
Legend:
PAO1 + blaPDC A200T = test: MIC, broth microdilution; format: cell-based; conditions: Pseudomonas aeruginosa
Excerpt: (§1) We took advantage of a previously constructed and characterized laboratory collection of recombinant P. aeruginosa PAO1 isolates expressing different blaPDC variants, but specifically enriched for this work with additional variants, following the previously described methodology ([17]). […] The final collection comprised 40 recombinant isolates (20 in PAO1 and 20 in PAO ΔpiuC) producing the wild-type PDC-1 variant from PAO1 and 19 derivatives carrying specific amino acid substitutions previously associated with the development of resistance to ceftazidime/avibactam, ceftolozane/tazobactam, or cefiderocol: T70I, F121L, P153L, G156D, A200T, G202S, ΔG202-E219, G214R, P215L, P215S, ΔP215-G222, D217N, E219K, E219G, E219D, S226ins, L293P, F121L + E219K, and F121L + G222S.
(§2) The MICs of ceftazidime, ceftazidime/avibactam, ceftolozane/tazobactam, cefepime, and cefiderocol were determined in triplicate, for all isolates, by reference broth microdilution assays. Avibactam and tazobactam were fixed at 4 mg/L. All assays were performed using cation-adjusted Mueller-Hinton broth (CAMHB), except for cefiderocol, which was determined in all cases using iron-depleted CAMHB, prepared according to CLSI M100 guidelines ([40]). EUCAST v.15.0 clinical breakpoints and guidelines (http://www.eucast.org/clinical_breakpoints/) were used for reference purposes. Reference strains Escherichia coli ATCC 25922, Klebsiella pneumoniae ATCC 700603, and P. aeruginosa ATCC 27853 were used as controls.

PAO1 + blaPDC D217N = test: MIC, broth microdilution; format: cell-based; conditions: Pseudomonas aeruginosa
Excerpt: as §1, §2

PAO1 + blaPDC E219D = test: MIC, broth microdilution; format: cell-based; conditions: Pseudomonas aeruginosa
Excerpt: as §1, §2

PAO1 + blaPDC E219G = test: MIC, broth microdilution; format: cell-based; conditions: Pseudomonas aeruginosa
Excerpt: as §1, §2

PAO1 + blaPDC E219K = test: MIC, broth microdilution; format: cell-based; conditions: Pseudomonas aeruginosa
Excerpt: as §1, §2

[1] = tested on: PAO1 + blaPDC F121L + E219K; test: MIC, broth microdilution; format: cell-based; conditions: Pseudomonas aeruginosa
Excerpt: as §1, §2

PAO1 + blaPDC F121L = test: MIC, broth microdilution; format: cell-based; conditions: Pseudomonas aeruginosa
Excerpt: as §1, §2

PAO1 + blaPDC G156D = test: MIC, broth microdilution; format: cell-based; conditions: Pseudomonas aeruginosa
Excerpt: as §1, §2

PAO1 + blaPDC G202S = test: MIC, broth microdilution; format: cell-based; conditions: Pseudomonas aeruginosa
Excerpt: as §1, §2

PAO1 + blaPDC G214R = test: MIC, broth microdilution; format: cell-based; conditions: Pseudomonas aeruginosa
Excerpt: as §1, §2

PAO1 + blaPDC L293P = test: MIC, broth microdilution; format: cell-based; conditions: Pseudomonas aeruginosa
Excerpt: as §1, §2

PAO1 + blaPDC P153L = test: MIC, broth microdilution; format: cell-based; conditions: Pseudomonas aeruginosa
Excerpt: as §1, §2

PAO1 + blaPDC P215L = test: MIC, broth microdilution; format: cell-based; conditions: Pseudomonas aeruginosa
Excerpt: as §1, §2

PAO1 + blaPDC P215S = test: MIC, broth microdilution; format: cell-based; conditions: Pseudomonas aeruginosa
Excerpt: as §1, §2

PAO1 + blaPDC S226ins = test: MIC, broth microdilution; format: cell-based; conditions: Pseudomonas aeruginosa, avibactam and tazobactam fixed at 4 mg/L, FDC in iron-depleted CAMHB
Excerpt: as §1, §2

PAO1 + blaPDC T70I = test: MIC, broth microdilution; format: cell-based; conditions: Pseudomonas aeruginosa
Excerpt: as §1, §2

PAO1 + blaPDC ∆G202-E219 = test: MIC, broth microdilution; format: cell-based; conditions: Pseudomonas aeruginosa, avibactam and tazobactam fixed at 4 mg/L, FDC in iron-depleted CAMHB
Excerpt: as §1, §2

PAO1 + blaPDC ∆P215-G222 = test: MIC, broth microdilution; format: cell-based; conditions: Pseudomonas aeruginosa, avibactam and tazobactam fixed at 4 mg/L, FDC in iron-depleted CAMHB
Excerpt: as §1, §2

PAO1 + blaPDC-1 (WT) = test: MIC, broth microdilution; format: cell-based; conditions: Pseudomonas aeruginosa, avibactam and tazobactam fixed at 4 mg/L, FDC in iron-depleted CAMHB
Excerpt: as §1, §2

PAO1 = test: MIC, broth microdilution; format: cell-based; conditions: Pseudomonas aeruginosa; PAO1 wild type, no plasmid-borne PDC; avibactam and tazobactam fixed at 4 mg/L; FDC in iron-depleted CAMHB
Excerpt: as §1, §2

[2] = tested on: PAO1 + blaPDC F121L + G220S; test: MIC, broth microdilution; format: cell-based; conditions: Pseudomonas aeruginosa
PDC-1 (WT) = PDC-1 (WT) (Pseudomonas aeruginosa, UniProt P24735); test: Steady-state kinetics of purified β-lactamase; conditions: for kcat: PDC-1 (WT), direct hydrolysis at substrate concentration at least three times the Km, 10 mM PBS, pH 7.4, room temperature; for Ratio: kcat/Km relative to PDC-1 (reference = 1)
PDC E219K = PDC E219K (Pseudomonas aeruginosa, UniProt P24735, E247K); test: Steady-state kinetics of purified β-lactamase; conditions: for increase in kcat values: PDC E219K relative to PDC-1; for Km / kcat: PDC E219K, 10 mM PBS, pH 7.4, room temperature; for Km: antibiotics: determined as Ki app with nitrocefin as reporter substrate; for kcat: direct hydrolysis at substrate concentration at least three times the Km; for Ratio for PDC E219K/PDC-1: ratio of kcat/Km (fold change in catalytic efficiency)
PDC L293P = PDC L293P (Pseudomonas aeruginosa, UniProt P24735, L320P); test: Steady-state kinetics of purified β-lactamase; conditions: for Km / kcat: PDC L293P, 10 mM PBS, pH 7.4, room temperature; for Km: antibiotics: determined as Ki app with nitrocefin as reporter substrate; for kcat: direct hydrolysis at substrate concentration at least three times the Km; for Ratio for PDC L293P/PDC-1: ratio of kcat/Km (fold change in catalytic efficiency)
[3] = tested on: CC(C)(O/N=C(\C(=O)N[C@@H]1C(=O)N2C(C(=O)[O-])=C(C[N+]3(CCNC(=O)c4ccc(O)c(O)c4Cl)CCCC3)CS[C@H]12)c1csc(N)n1)C(=O)O; test: purified protein, by the assay type; conditions: other: PDC-1 (WT), antibiotics: determined as Ki app with nitrocefin as reporter substrate, 10 mM PBS, pH 7.4, room temperature
[4] = tested on: CC(C)(O/N=C(\C(=O)N[C@@H]1C(=O)N2C(C(=O)[O-])=C(C[n+]3ccccc3)CS[C@H]12)c1csc(N)n1)C(=O)O; test: purified protein, by the assay type; conditions: other: PDC-1 (WT), antibiotics: determined as Ki app with nitrocefin as reporter substrate, 10 mM PBS, pH 7.4, room temperature
[5] = tested on: CO/N=C(\C(=O)N[C@@H]1C(=O)N2C(C(=O)[O-])=C(C[N+]3(C)CCCC3)CS[C@H]12)c1csc(N)n1; test: purified protein, by the assay type; conditions: other: PDC-1 (WT), antibiotics: determined as Ki app with nitrocefin as reporter substrate, 10 mM PBS, pH 7.4, room temperature
[6] = tested on: Cn1c(N)c(NC(=O)NCCN)c[n+]1CC1=C(C(=O)O)N2C(=O)[C@@H](NC(=O)/C(=N\OC(C)(C)C(=O)[O-])c3nsc(N)n3)[C@H]2SC1; test: purified protein, by the assay type; conditions: other: PDC-1 (WT), antibiotics: determined as Ki app with nitrocefin as reporter substrate, 10 mM PBS, pH 7.4, room temperature
[7] = tested on: O=C(Cc1cccs1)N[C@@H]1C(=O)N2C(C(=O)O)=C(/C=C/c3ccc([N+](=O)[O-])cc3[N+](=O)[O-])CS[C@H]12; test: purified protein, by the assay type; conditions: other: PDC-1 (WT), antibiotics: determined as Ki app with nitrocefin as reporter substrate, 10 mM PBS, pH 7.4, room temperature

Molecule | MIC (PAO1 + blaPDC A200T) [µg/mL] | MIC (PAO1 + blaPDC D217N) [µg/mL] | MIC (PAO1 + blaPDC E219D) [µg/mL] | MIC (PAO1 + blaPDC E219G) [µg/mL] | MIC (PAO1 + blaPDC E219K) [µg/mL] | MIC [1] [µg/mL] | MIC (PAO1 + blaPDC F121L) [µg/mL] | MIC (PAO1 + blaPDC G156D) [µg/mL] | MIC (PAO1 + blaPDC G202S) [µg/mL] | MIC (PAO1 + blaPDC G214R) [µg/mL] | MIC (PAO1 + blaPDC L293P) [µg/mL] | MIC (PAO1 + blaPDC P153L) [µg/mL] | MIC (PAO1 + blaPDC P215L) [µg/mL] | Ratio (PDC-1 (WT)) | Km (PDC E219K) [µM] | Km (PDC L293P) [µM] | kcat (PDC L293P) [s⁻¹] | Ratio for PDC L293P/PDC-1 (PDC L293P) | kcat (PDC E219K) [s⁻¹] | Ratio for PDC E219K/PDC-1 (PDC E219K) | other results
CC(C)(O/N=C(\C(=O)N[C@@H]1C(=O)N2C(C(=O)[O-])=C(C[n+]3ccccc3)CS[C@H]12)c1csc(N)n1)C(=O)O [CAZ, ceftazidime] | 64 (≈ 117 µM) | 64 (≈ 117 µM) | 64 (≈ 117 µM) | 16 (≈ 29.3 µM) | 256 (≈ 468 µM) | > 256 | 64 (≈ 117 µM) | 64 (≈ 117 µM) | 64 (≈ 117 µM) | 128 (≈ 234 µM) | 64 (≈ 117 µM) | 128 (≈ 234 µM) | 64 (≈ 117 µM) | 1 | 292 ± 27.5 | 2.84 ± 0.31 | 0.0110 ± 0.0003 | 8.67 | – | – | MIC (PAO1 + blaPDC P215S): 64 µg/mL (≈ 117 µM); MIC (PAO1 + blaPDC S226ins): 128 µg/mL; MIC (PAO1 + blaPDC T70I): 64 µg/mL (≈ 117 µM); MIC (PAO1 + blaPDC ∆G202-E219): 64 µg/mL; MIC (PAO1 + blaPDC ∆P215-G222): 256 µg/mL; MIC (PAO1 + blaPDC-1 (WT)): 32 µg/mL; MIC (PAO1): ≤ 1 µg/mL; MIC [2]: 64 µg/mL (≈ 117 µM); kcat (PDC-1 (WT)): 0.0082 s⁻¹; increase in kcat values (PDC E219K): ≈ 267 fold; kcat (PDC E219K; listed as Ceftazidime): 2.19 ± 0.17 s⁻¹; kcat (PDC E219K; listed as ceftazidime): 2.19 s⁻¹; Ratio for PDC E219K/PDC-1 (PDC E219K; listed as Ceftazidime): 15.56; Ratio for PDC E219K/PDC-1 (PDC E219K; listed as ceftazidime): ≈ 16
Cn1c(N)c(NC(=O)NCCN)c[n+]1CC1=C(C(=O)O)N2C(=O)[C@@H](NC(=O)/C(=N\OC(C)(C)C(=O)[O-])c3nsc(N)n3)[C@H]2SC1 [Ceftolozane, ceftolozane] | – | – | – | – | – | – | – | – | – | – | – | – | – | 1 | 266 ± 43.5 | 108 ± 28.8 | 0.051 ± 0.007 | 3.69 | 4.18 ± 0.19 | 123.08 | kcat (PDC-1 (WT)): 0.0715 s⁻¹; increase in kcat values (PDC E219K): ≈ 58 fold; kcat (PDC E219K; listed as ceftolozane): 4.18 s⁻¹; Ratio for PDC E219K/PDC-1 (PDC E219K; listed as ceftolozane): ≈ 123
CO/N=C(\C(=O)N[C@@H]1C(=O)N2C(C(=O)[O-])=C(C[N+]3(C)CCCC3)CS[C@H]12)c1csc(N)n1 [FEP, cefepime] | 16 (≈ 33.3 µM) | 16 (≈ 33.3 µM) | 8 (≈ 16.6 µM) | 4 (≈ 8.32 µM) | 32 (≈ 66.6 µM) | 32 (≈ 66.6 µM) | 16 (≈ 33.3 µM) | 4 (≈ 8.32 µM) | 16 (≈ 33.3 µM) | 16 (≈ 33.3 µM) | 128 (≈ 266 µM) | 32 (≈ 66.6 µM) | 8 (≈ 16.6 µM) | 1 | 92.5 ± 26.3 | 4.58 ± 0.42 | 0.189 ± 0.007 | 39.29 | 0.25 ± 0.06 | 2.57 | MIC (PAO1 + blaPDC P215S): 8 µg/mL (≈ 16.6 µM); MIC (PAO1 + blaPDC S226ins): 8 µg/mL; MIC (PAO1 + blaPDC T70I): 16 µg/mL (≈ 33.3 µM); MIC (PAO1 + blaPDC ∆G202-E219): 8 µg/mL; MIC (PAO1 + blaPDC ∆P215-G222): 32 µg/mL; MIC (PAO1 + blaPDC-1 (WT)): 16 µg/mL; MIC (PAO1): 2 µg/mL; MIC [2]: 32 µg/mL (≈ 66.6 µM); improvement in substrate binding affinity (Km decrease) (PDC L293P; PDC L293P relative to PDC-1): ≈ 29 fold
O=C(Cc1cccs1)N[C@@H]1C(=O)N2C(C(=O)O)=C(/C=C/c3ccc([N+](=O)[O-])cc3[N+](=O)[O-])CS[C@H]12 [Nitrocefin, nitrocefin] | – | – | – | – | – | – | – | – | – | – | – | – | – | 1 | 24.1 ± 4.01 | 6.71 ± 1.28 | 18.77 ± 4.37 | 1.80 | 4.41 ± 0.18 | 0.12 | –
PDC-1 (WT) (Pseudomonas aeruginosa PAO1) | – | – | – | – | – | – | – | – | – | – | – | – | – | – | – | – | – | – | – | – | Km [3]: 85.29 ± 9.48 µM; kcat [3]: 0.0036 ± 0.0007 s⁻¹; kcat/Km [3]: 40 M⁻¹ s⁻¹; Km [4]: 18.08 ± 0.88 µM; kcat [4]: 0.0082 ± 0.0007 s⁻¹; kcat/Km [4]: 450 M⁻¹ s⁻¹; Km [5]: 132.06 ± 23.69 µM; kcat [5]: 0.138 ± 0.009 s⁻¹; kcat/Km [5]: 1050 M⁻¹ s⁻¹; Km [6]: 554.08 ± 3.00 µM; kcat [6]: 0.0715 ± 0.0006 s⁻¹; kcat/Km [6]: 130 M⁻¹ s⁻¹; Km [7]: 13.98 ± 0.80 µM; kcat [7]: 21.9 ± 6.5 s⁻¹; kcat/Km [7]: 1.55e+06 ± 380000 M⁻¹ s⁻¹

From publication PMC12217463, “Functional and structural analyses of amino acid sequence variation in PDC β-lactamase reveal different mechanistic pathways toward cefiderocol resistance in Pseudomonas aeruginosa” (Antimicrobial Agents and Chemotherapy, 2025)
